Twelve compounds from ChEMBL document CHEMBL1138894, “Synthesis and biological investigation of S-aryl-S-DABO derivatives as HIV-1 inhibitors” (Bioorg Med Chem Lett, 2006) can be followed below.

Test [1] has as its target Human immunodeficiency virus type 1 reverse transcriptase (Human immunodeficiency virus 1) (UniProt Q72547).
Test [2] concerns Human immunodeficiency virus type 1 reverse transcriptase (Human immunodeficiency virus 1), Q72547 [K103N]. Description: Inhibition of HIV1 reverse transcriptase K103N mutant at 400uM.
The subject of test [3] is Human immunodeficiency virus type 1 reverse transcriptase (Human immunodeficiency virus 1), Q72547 [Y181I]. Description: Inhibition of HIV1 reverse transcriptase Y181I mutant at 400uM.
A further test deals with MT4. Description: Cytotoxicity against MT4 cells by MTT assay. The format is functional. The settings on record: Homo sapiens. For orientation: Tetrazolium dyes change colour on reduction, which living cells bring about.
For test [4], the target named is Human immunodeficiency virus type 1 reverse transcriptase (Human immunodeficiency virus 1) (UniProt Q72547). Description: Inhibition of wild type HIV1 reverse transcriptase at 400uM.
Test [5] has the same target. Briefly: Selectivity index (CC50/EC50). The format is functional.

The term CC50 denotes the concentration giving 50% cytotoxicity.

Activity calls are given as the source filed them. No cut-off for these calls is given here.

Compound `Cc1c(O)nc(Sc2ccc(Cl)cc2)nc1Cc1c(F)cccc1F` gave an ID50 in test [1] of 22 µM. Besides, the result in test [2] and in test [3] was inactive. For the same compound, the CC50 in the test with MT4 is > 66.1 µM.

With `Cc1cn([C@H]2C[C@H](N=[N+]=[N-])[C@@H](CO)O2)c(=O)[nH]c1=O` [ZIDOVUDINE], the CC50 in the test with MT4 came out at 3.7 µM.

With `COc1ccc(Sc2nc(O)c(C)c(Cc3c(F)cccc3F)n2)cc1`, the outcome in test [4], in test [2] and in test [3] was inactive. For the same compound, it took 57.5 µM to reach half-maximal cytotoxicity in the test on MT4 (CC50).

Take `O=C1Nc2ccc(Cl)cc2C(C#CC2CC2)(C(F)(F)F)O1` (single isomer, unassigned) [EFAVIRENZ]: the CC50 with MT4 is > 0.32 µM.

With `Cc1c(O)nc(Sc2ccc(F)cc2F)nc1Cc1c(F)cccc1F`, in test [1], the ID50 turned out to be 30 µM. Moreover, the outcome in test [2] and in test [3] was inactive. In addition, the CC50 with MT4 is > 65.8 µM.

For the compound `Cc1c(O)nc(Sc2ccc(F)cc2F)nc1Cc1c(Cl)cccc1Cl`, the ID50 in test [1] was found to be 10 µM. Further, the result in test [2] and in test [3] was inactive. Moreover, the cytotoxic concentration (CC50) in the test on MT4 was > 60.5 µM.

As to `COc1ccc(Sc2nc(O)c(C)c(Cc3c(Cl)cccc3Cl)n2)cc1`, the outcome in test [4], in test [2] and in test [3] was inactive. The cytotoxic concentration (CC50) with MT4 is > 61.4 µM.

For the compound `Cc1c(O)nc(Sc2ccccc2)nc1Cc1c(Cl)cccc1Cl`, the ID50 in test [1] is 36 µM. The outcome in test [2] and in test [3] was inactive. Besides, in the test with MT4, the CC50 is > 66.3 µM.

In turn, `Cc1c(O)nc(Sc2ccc(C#N)cc2)nc1Cc1c(Cl)cccc1Cl` came in with an ID50 in test [1] of 23 µM. Further, the outcome in test [2] and in test [3] was inactive. Moreover, the cytotoxic concentration (CC50) in the test on MT4 stood at 27.6 µM.

As to `Cc1ccnc2c1NC(=O)c1cccnc1N2C1CC1` [NEVIRAPINE], the cytotoxic concentration (CC50) in the test with MT4 is > 7.5 µM.

`Cc1c(O)nc(Sc2ccccc2)nc1Cc1c(F)cccc1F`: the ID50 in test [1] came out at 32 µM. Moreover, the outcome in test [2] and in test [3] was inactive. For the same compound, the Selectivity index in test [5] is > 835. Further, the cytotoxic concentration (CC50) in the test with MT4 is > 72.7 µM.

`COc1ccc(Sc2nc(O)c(C)c(Cc3c(Cl)cccc3Cl)n2)cn1` returned an ID50 in test [1] of 3.5 µM. The result in test [2] and in test [3] was inactive. In addition, in the test on MT4, the CC50 was > 61.3 µM.
